Test results published in PubChem BioAssay AID1508612.

Test: passive permeability, PAMPA, ADME assay (AID 1508612)
Conditions: pH 7.4, 30.0 min, 50.0 µM

Structure (SMILES)	Papp
CO[C@@H]1/C=C\O[C@@]2(C)Oc3c(C)c(O)c4c(c3C2=O)C(=N[C@H]2CC[C@H](O)O[C@@H]2C)C=C(NC(=O)/C(C)=C\C(=O)[C@@H]2C[C@@H]2[C@@H](O)[C@H](C)[C@@H](O)[C@H](C)[C@H](OC(C)=O)[C@@H]1C)C4=O	2.33 ×10⁻⁶ cm/s
CCN(c1cc(C#CCN2CCOCC2)cc(C(=O)NCc2c(C)cc(C)[nH]c2=O)c1C)C1CCC(N(C)CCOC)CC1 (stereo not drawn)	6.74 ×10⁻⁶ cm/s
CC(C)Oc1ccc(-c2csc(N3CCC(C(N)=O)CC3)n2)cc1	> 1000 ×10⁻⁶ cm/s
CC(C)(C)c1ccc(-n2cnc3cc(C(=O)N4CCCCC4)ccc32)cc1	969 ×10⁻⁶ cm/s
Cc1cc(N2CCN(c3ccccc3)CC2)nc(-n2nc(C)cc2C)n1	> 1000 ×10⁻⁶ cm/s
NC(=O)c1ccc(-c2ncc3cnc(-c4cccc(F)c4)cn23)cc1	480 ×10⁻⁶ cm/s
COc1ccc(C2c3c(oc4ccc(Cl)cc4c3=O)C(=O)N2CCCN(C)C)cc1OC (stereo not drawn)	235 ×10⁻⁶ cm/s
CCN(CC)CCNC(=O)C1CCN(c2nn3cc(-c4ccc(F)cc4)nc3s2)CC1	> 1000 ×10⁻⁶ cm/s
Cc1ccc(NC(=O)N2CCN(c3nc(N)nc4sc(-c5cccnc5)nc34)CC2)cc1	577 ×10⁻⁶ cm/s
Fc1ccc(CNc2ncnc3onc(-c4ccc(F)cc4)c23)cc1	> 1000 ×10⁻⁶ cm/s
CCOc1cc(-c2nccc3cc(OC)c(OC)cc23)cc(OCC)c1OCC	> 1000 ×10⁻⁶ cm/s
Cc1ccccc1C(=O)N1CCc2cc(-n3cc(NC(=O)Cc4ccccc4)cn3)ccc21	82.6 ×10⁻⁶ cm/s
Fc1ccc(Nc2nccc(-c3ccncc3)n2)cc1F	> 1000 ×10⁻⁶ cm/s
O=C1CCCC2=C1C1(CCS(=O)(=O)C1)N=C(Nc1nc3ccccc3o1)N2 (stereo not drawn)	176 ×10⁻⁶ cm/s
Cc1ccccc1C(=O)N1CCC(C(=O)N2CCC(N3Cc4ccccc4C3=O)CC2)CC1	50.8 ×10⁻⁶ cm/s
C[S+](=O)([O-])c1ccc(-c2nc(C(=O)N3CCOCC3)n3ccccc23)cc1	180 ×10⁻⁶ cm/s
CC(=O)c1c(C)[nH]c(C(=O)Nc2ccc(Cl)cc2)c1C	364 ×10⁻⁶ cm/s
O=C(Nc1nc(-c2ccccc2)cs1)c1ccncc1NS(=O)(=O)c1ccc2ccccc2c1	> 1000 ×10⁻⁶ cm/s
O=C(Nc1ccccc1-c1cn2c(CN3CCNCC3)csc2n1)c1cnc2ccccc2n1	239 ×10⁻⁶ cm/s
CCOc1ccc(CCNC(=O)c2cc3sccc3n2Cc2ccncc2)cc1OCC	> 1000 ×10⁻⁶ cm/s
Cc1cnc(-c2ccccc2C2CC2)nc1NCc1ccc(-c2cccnc2)cc1	> 1000 ×10⁻⁶ cm/s
COC(=O)c1ccc(O)c2ncc(N3CCN(C)CC3)cc12	845 ×10⁻⁶ cm/s

Structure (SMILES)	Papp
CC(O)(C#Cc1ccc2c(c1)N(c1nc(N)ncc1Cl)CC2)c1nccs1 (stereo not drawn)	516 ×10⁻⁶ cm/s
Clc1ccc(C2(c3ccc(-c4cn[nH]c4)cc3)CCNCC2)cc1	40.5 ×10⁻⁶ cm/s
O=C(CCCN1CCC2(CC1)C(=O)N(Cc1cccc(F)c1)CN2c1ccccc1)c1ccc(F)cc1	21 ×10⁻⁶ cm/s
c1ccc(Nc2cc(-c3ccoc3)ncn2)cc1	> 1000 ×10⁻⁶ cm/s
NC(=O)C1CCN(c2nc(-c3ccc(Br)cc3)cs2)CC1	241 ×10⁻⁶ cm/s
Cc1cc(Nc2ccc(Br)c(C)c2)n2nc(C)nc2n1	874 ×10⁻⁶ cm/s
Cc1ccc(C(=O)Nc2cccc(C(F)(F)F)c2)cc1Nc1nc(-c2cccnc2)nc2c1cnn2C	283 ×10⁻⁶ cm/s
COc1ccc(OC)c(-c2nnc3n2N=C(c2c(OC)cccc2OC)CS3)c1	617 ×10⁻⁶ cm/s
O=S(=O)(Nc1nccs1)c1ccc(NCc2cccc(F)c2O)cc1	2.11 ×10⁻⁶ cm/s
COc1ccc(-c2cc3nccn3c(Nc3ncccc3C(N)=O)n2)cc1OC	26.4 ×10⁻⁶ cm/s
CCOc1ccc(CCNC(=O)c2ccccc2)cc1OCC	580 ×10⁻⁶ cm/s
Cc1ccc(-c2cc(C(=O)Nc3ccccn3)c3ccccc3n2)cc1	> 1000 ×10⁻⁶ cm/s
COc1ccc(-c2ccc3nc(-c4ccc(SC)cc4)oc3c2)c(OC)c1OC	< 1 ×10⁻⁶ cm/s
Fc1cc(Nc2nc(-c3ccncc3)nc3ccccc23)ccc1-c1cccc(C(F)(F)F)c1	16.8 ×10⁻⁶ cm/s
CCc1cccc(C)c1Nc1c(-c2ccc(N(C)C)cc2)nc2ncccn12	> 1000 ×10⁻⁶ cm/s
CCOC(=O)c1[nH]c(C)c(CCC(=O)N2CCN(c3cc(Cl)ccc3C)CC2)c1C	> 1000 ×10⁻⁶ cm/s
CN(C)C(=O)c1ccc(-c2cc[nH]c(=O)c2N)cc1	12.1 ×10⁻⁶ cm/s
Cc1cc2ccccc2n1CC(=O)NC1CCCCC1	634 ×10⁻⁶ cm/s
CC(C)C(=O)Nc1cccc(NC(=O)c2cc3ccccc3o2)c1	874 ×10⁻⁶ cm/s
CN1CC=C(c2nc(Nc3ccc(F)c(F)c3)c3ccccc3n2)CC1	> 1000 ×10⁻⁶ cm/s
NC[C@H](O)c1ccc(O)c(O)c1	5.7 ×10⁻⁶ cm/s
Cc1ccnc(NC(=S)N2CCN(c3ccc(C(F)(F)F)cc3[N+](=O)[O-])CC2)c1	> 1000 ×10⁻⁶ cm/s

Structure (SMILES)	Papp
CSc1ccc(C(=O)c2[nH]c(=O)[nH]c2C)cc1	28.7 ×10⁻⁶ cm/s
O=C(Nc1ccc([S+](=O)([O-])Nc2nccs2)cc1)c1ncn[nH]1	< 1 ×10⁻⁶ cm/s
CC(=O)C1CCN(c2ncc(-c3cccc(N(C)C)c3)s2)CC1	> 1000 ×10⁻⁶ cm/s
Cc1ccc(-c2cc(C(=O)NC3CCCCC3)c3ccccc3n2)cc1	> 1000 ×10⁻⁶ cm/s
Cc1ccc(S(=O)(=O)Nc2cnccc2C(=O)Nc2nc(-c3ccc(C)c(C)c3)cs2)cc1	> 1000 ×10⁻⁶ cm/s
NC(=O)C1CCN(c2nc(-c3cccs3)cs2)CC1	195 ×10⁻⁶ cm/s
CCC(C)N(C)C(=O)c1cc2ccccc2c(-c2ccccc2Cl)n1 (stereo not drawn)	> 1000 ×10⁻⁶ cm/s
COc1cccc(C(=O)Nc2nnc(S(=O)(=O)N3CCOCC3)s2)c1	19.2 ×10⁻⁶ cm/s
Clc1ccc(-c2noc3ncnc(N4CCCCC4)c23)cc1	> 1000 ×10⁻⁶ cm/s
O=C1CCCC2=C1C(c1[nH]ncc1Cl)N=C(Nc1nc3cccc(Cl)c3o1)N2 (stereo not drawn)	> 1000 ×10⁻⁶ cm/s
Cc1ccc(C)c(CN2C(=O)c3ccccc3S(=O)c3ccc(C(=O)N4CCN(c5ccccc5F)CC4)cc32)c1 (stereo not drawn)	> 1000 ×10⁻⁶ cm/s
O=c1cc(N2CCOCC2)oc2c1ccc1ccccc12	294 ×10⁻⁶ cm/s
Cc1ccc(S(=O)(=O)Nc2cnccc2C(=O)Nc2nc(-c3cc(Br)cs3)cs2)cc1	9.1 ×10⁻⁶ cm/s
O=C1Nc2ccccc2/C1=C\c1ccc(C(=O)O)cc1	3.96 ×10⁻⁶ cm/s
O=C(Cc1ccc(O)cc1)N1CC(CNc2ccccc2)C2(C1)CN(c1ccccc1)C2 (stereo not drawn)	197 ×10⁻⁶ cm/s
CCC[C@H](NC(=O)C(C#N)=Cc1cccc(Br)n1)c1ccccc1	> 1000 ×10⁻⁶ cm/s
Cc1c(C(=O)NN2CCCCC2)nn(-c2ccc(Cl)cc2Cl)c1-c1ccc(Cl)cc1	> 1000 ×10⁻⁶ cm/s
O=C(Nc1ccc(S(=O)(=O)Nc2nccs2)cc1)c1cccnc1	< 1 ×10⁻⁶ cm/s
NC(=O)c1cnc(N[C@@H]2CCCC[C@@H]2N)nc1Nc1cccc(-n2nccn2)c1	11.7 ×10⁻⁶ cm/s
CCOc1ccc(NC(=O)CC2C(=O)N(c3ccc(F)cc3)C(=O)N2CCc2sccc2C)cc1 (stereo not drawn)	927 ×10⁻⁶ cm/s
O=c1cc(CSc2ccc(Cl)cc2)nc(-c2ccccn2)[nH]1	> 1000 ×10⁻⁶ cm/s
Oc1ccc2[nH]cc(CCCCN3CC=C(c4ccccc4)CC3)c2c1	> 1000 ×10⁻⁶ cm/s

Structure (SMILES)	Papp
COc1ccccc1-c1nc(NCc2ccc(-c3cccnc3)cc2)c2ccccc2n1	980 ×10⁻⁶ cm/s
Fc1cnc(-c2ccccc2C(F)F)nc1NCc1ccc(-c2cccnc2)cc1	> 1000 ×10⁻⁶ cm/s
Cc1cc(Cl)ccc1COc1ccnn1-c1cc(C(=O)O)ccn1	5.16 ×10⁻⁶ cm/s
NC(=O)C1CCN(c2nc(-c3cccc(Cl)c3)cs2)CC1	> 1000 ×10⁻⁶ cm/s
N#Cc1cccc(S(=O)(=O)Nc2cnccc2C(=O)Nc2nc(-c3ccccc3)cs2)c1	189 ×10⁻⁶ cm/s
NC(=O)C1CCN(c2nc(-c3ccc(OC(F)(F)F)cc3)cs2)CC1	104 ×10⁻⁶ cm/s
CC(C)c1ccccc1-c1ncc(F)c(NCc2ccc(-n3ccnn3)cc2)n1	> 1000 ×10⁻⁶ cm/s
O=C(NC1CCCc2c1cnn2-c1ccc(O)cc1)c1ccccn1 (stereo not drawn)	587 ×10⁻⁶ cm/s
O=C1CCC(CNC(=O)c2nc(-c3ccccc3)cc3[nH]ccc23)N1 (stereo not drawn)	123 ×10⁻⁶ cm/s
CCCCCCCCc1ccc(CCC(N)(CO)CO)cc1	5.3 ×10⁻⁶ cm/s
CCc1ccc2oc(NC3=NC(c4[nH]ncc4Cl)C4=C(CCCC4=O)N3)nc2c1 (stereo not drawn)	916 ×10⁻⁶ cm/s
Fc1cccc(-c2ccc(Nc3nc(-c4ccncc4)nc4ccccc34)cc2F)c1	49 ×10⁻⁶ cm/s
CCOc1ccc(CCNC(=O)c2cc3ccccc3n2C)cc1OCC	> 1000 ×10⁻⁶ cm/s
CCN1C(=O)c2ccccc2[S@](=O)c2ccc(C(=O)NCc3ccc(F)cc3)cc21	> 1000 ×10⁻⁶ cm/s
O=[S+]([O-])(Nc1nccs1)c1ccc(NCc2cc(F)cc(Cl)c2O)cc1	18.1 ×10⁻⁶ cm/s
O=C([C@@H]1CCCN(c2ccc3[nH]c(C4(n5cc(Cl)cn5)CC4)nc3n2)C1)N1CCCC1	225 ×10⁻⁶ cm/s
O=C(Nc1ccc(Cl)cc1)C(NS(=O)(=O)c1cccs1)c1ccccc1 (stereo not drawn)	< 1 ×10⁻⁶ cm/s
NC(=O)C1CCN(c2ncc(-c3ccc4c(c3)OCO4)s2)CC1	692 ×10⁻⁶ cm/s
CC1=C[C@@H](CN2C(=O)C(C)=C(C)C2=O)[C@H](C(C)C)C[C@H]1Cc1nc2c(C)cccc2[nH]1	585 ×10⁻⁶ cm/s
COc1ccc(Cn2c(C(=O)O)c(CNCc3cccc(OC)c3)c3ccc(C)cc32)cc1	361 ×10⁻⁶ cm/s
O=C1Nc2ccccc2/C1=C/c1ccc[nH]1	606 ×10⁻⁶ cm/s
Oc1ccc(-c2nc(C3CC3)nc3c2CCN(CC2CCCCC2)CC3)cc1	> 1000 ×10⁻⁶ cm/s

Structure (SMILES)	Papp
CCOC(=O)c1ccc(N2C(=O)c3n[nH]c(-c4cccs4)c3C2c2ccc(Cl)cc2Cl)cc1 (stereo not drawn)	85.8 ×10⁻⁶ cm/s
CCOc1ccc(CCNC(=O)c2cccc(C(=O)c3ccccc3)c2)cc1OCC	> 1000 ×10⁻⁶ cm/s
CN(C)c1cc(-c2nc(Nc3ccc(F)c(F)c3)c3ccccc3n2)ccn1	> 1000 ×10⁻⁶ cm/s
O=S(=O)(Nc1nccs1)c1ccc(NCc2cccc(Br)c2O)cc1	72.7 ×10⁻⁶ cm/s
O=c1[nH]cnc2nc[nH]c12	< 1 ×10⁻⁶ cm/s
CCCN1CNc2c(c(=O)[nH]c(=S)n2Cc2ccc(OC)c(OC)c2)C1	55 ×10⁻⁶ cm/s
CC(C)c1ccc(S(=O)(=O)c2cnc(SCC(=O)Nc3ccc4c(c3)OCCO4)[nH]c2=O)cc1	1.84 ×10⁻⁶ cm/s
CC(=O)c1ccc(N2CCN(S(=O)(=O)c3ccc4c(c3)CC(=O)N4)CC2)cc1	429 ×10⁻⁶ cm/s
Cc1cnc(-c2ccccc2C(C)C)nc1NCC1CCN(c2cccnc2)CC1	> 1000 ×10⁻⁶ cm/s
CCN(CC)CCNC(=O)c1c(C)[nH]c(/C=C2\C(=O)Nc3ccc(F)cc32)c1C	235 ×10⁻⁶ cm/s
CCOc1ccc(CCNC(=O)c2cc3sccc3n2C)cc1OCC	> 1000 ×10⁻⁶ cm/s
Clc1ccccc1Nc1nc(-c2ccncc2)nc2ccccc12	> 1000 ×10⁻⁶ cm/s
Fc1ccc(F)c(Nc2nc(-c3ccncc3)nc3ccccc23)c1	455 ×10⁻⁶ cm/s
COc1ccc(-n2nc(C3CCCN(CC4CCCCC4)C3)[nH]c2=O)cc1 (stereo not drawn)	> 1000 ×10⁻⁶ cm/s
Cc1ccc(S(=O)(=O)Nc2cnccc2C(=O)Nc2ccc(C#N)cc2)cc1	69.6 ×10⁻⁶ cm/s
Clc1cccc(-c2ccc(-c3nnc(CCCc4ccc5cccnc5n4)o3)cc2)c1	> 1000 ×10⁻⁶ cm/s
Cc1cccc(N2CCN(C(=O)Cn3ncc4c3-c3ccccc3OC4)CC2)c1C	676 ×10⁻⁶ cm/s
Nc1ncnc2c1c(-c1cnc3[nH]ccc3c1)nn2C1CCCC1	> 1000 ×10⁻⁶ cm/s
Cn1c(=O)c2[nH]c(=O)[nH]c2n(C)c1=O	1.71 ×10⁻⁶ cm/s
CCN(CCN(C)C)C(=O)C1CCN(S(=O)(=O)c2c(C)noc2/C=C/c2ccccc2F)CC1	> 1000 ×10⁻⁶ cm/s
